Source: patent publication US12612416B2, “Modulators of cystic fibrosis transmembrane conductance regulator” (VERTEX PHARMACEUTICALS INCORPORATED, priority 2020, dated 2026)

Key:
CFTR = CFTR (Homo sapiens, UniProt P13569); assay: standard Ussing Chamber Assay for CFTR potentiator activity; type: cell-based
Experimental: tert-Butyl N-[(6R,12R)-6-benzyloxy-12-methyl-6,15-bis(trifluoromethyl)-13,19-dioxa-3,4,18-triazatricyclo[12.3.1.12,5]nonadeca-1(18),2,4,14,16-pentaen-17-yl]-N-tert-butoxycarbonyl-carbamate (8.6 g, 11.77 mmol) was dissolved in ethanol (172 mL) then the flask was cycled 3 times between vacuum/nitrogen. Treated the mixture with 10% Pd/C (50% water wet, 1.8 g of 5% w/w, 0.8457 mmol) then cycled 3 times between vacuum/nitrogen and 3 times between vacuum/hydrogen and then stirred vigorously under hydrogen (balloon) at room temperature for 18 hours. The mixture was cycled 3 times between vacuum/nitrogen, filtered over Celite, washing with ethanol, and then the filtrate was evaporated to give 7.3 g of tert-butyl N-tert-butoxycarbonyl-N-[(6R,12R)-6-hydroxy-12-methyl-6,15-bis(trifluoromethyl)-13,19-dioxa-3,4,18-triazatricyclo[12.3.1.12,5]nonadeca-1(18),2,4,14,16-pentaen-17-yl]carbamate an off-white solid. 1H NMR and MS confirmed the expected product. CFTR modulating activity was confirmed using a standard Ussing Chamber Assay for CFTR potentiator activity.

[1] = target: T1, CFTR-mediated short-circuit current in F508del/MF-HBE cells (Homo sapiens, UniProt P13569, DEL508-508); assay: HBE2 assay: Ussing chamber assay of CFTR-mediated short-circuit currents; type: cell-based; settings: single fixed concentration 3 μM in combination with 44 nM (6R,12R)-17-amino-12-methyl-6,15-bis(trifluoromethyl)-13,19-dioxa-3,4,18-triazatricyclo[12.3.1.12,5]nonadeca-1(18),2,4,14,16-pentaen-6-ol, 20% human serum
T1 construct: endogenous in cells; host or cells: primary human bronchial epithelial cells from CF subjects (F508del/MF)
Experimental: Ussing chamber experiments were performed using human bronchial epithelial (HBE) cells derived from CF subjects heterozygous for F508del and a minimal function CFTR mutation (F508del/MF-HBE) and cultured as previously described (Neuberger T, Burton B, Clark H, Van Goor F Methods Mol Biol 2011:741:39-54). After four days the apical media was removed, and the cells were grown at an air liquid interface for >14 days prior to use.
To isolate the CFTR-mediated short-circuit (ISC) current, F508del/MF-HBE grown on Costar® Snapwell™ cell culture inserts were mounted in an Ussing chamber and the transepithelial ISC was measured under voltage-clamp recording conditions (Vhold=0 mV) at 37° C. The basolateral solution contained (in mM) 145 NaCl, 0.83K2HPO4, 3.3 KH2PO4, 1.2 MgCl2, 1.2 CaCl2), 10 Glucose, 10 HEPES (pH adjusted to 7.4 with NaOH) and the apical solution contained (in mM) 145 NaGluconate, 1.2 MgCl2, 1.2 CaCl2), 10 glucose, 10 HEPES (pH adjusted to 7.4 with NaOH) and 30 μM amiloride to block the epithelial sodium channel. […] The CFTR-mediated ISC (μA/cm^2) for each condition was determined from the peak forskolin response to the steady-state current following inhibition.
The activity of the CFTR corrector compounds on the CFTR-mediated ISC was determined in Ussing chamber studies as described above. […]

T1 sequence (P13569 with tags, fused parts or gaps DEL508-508): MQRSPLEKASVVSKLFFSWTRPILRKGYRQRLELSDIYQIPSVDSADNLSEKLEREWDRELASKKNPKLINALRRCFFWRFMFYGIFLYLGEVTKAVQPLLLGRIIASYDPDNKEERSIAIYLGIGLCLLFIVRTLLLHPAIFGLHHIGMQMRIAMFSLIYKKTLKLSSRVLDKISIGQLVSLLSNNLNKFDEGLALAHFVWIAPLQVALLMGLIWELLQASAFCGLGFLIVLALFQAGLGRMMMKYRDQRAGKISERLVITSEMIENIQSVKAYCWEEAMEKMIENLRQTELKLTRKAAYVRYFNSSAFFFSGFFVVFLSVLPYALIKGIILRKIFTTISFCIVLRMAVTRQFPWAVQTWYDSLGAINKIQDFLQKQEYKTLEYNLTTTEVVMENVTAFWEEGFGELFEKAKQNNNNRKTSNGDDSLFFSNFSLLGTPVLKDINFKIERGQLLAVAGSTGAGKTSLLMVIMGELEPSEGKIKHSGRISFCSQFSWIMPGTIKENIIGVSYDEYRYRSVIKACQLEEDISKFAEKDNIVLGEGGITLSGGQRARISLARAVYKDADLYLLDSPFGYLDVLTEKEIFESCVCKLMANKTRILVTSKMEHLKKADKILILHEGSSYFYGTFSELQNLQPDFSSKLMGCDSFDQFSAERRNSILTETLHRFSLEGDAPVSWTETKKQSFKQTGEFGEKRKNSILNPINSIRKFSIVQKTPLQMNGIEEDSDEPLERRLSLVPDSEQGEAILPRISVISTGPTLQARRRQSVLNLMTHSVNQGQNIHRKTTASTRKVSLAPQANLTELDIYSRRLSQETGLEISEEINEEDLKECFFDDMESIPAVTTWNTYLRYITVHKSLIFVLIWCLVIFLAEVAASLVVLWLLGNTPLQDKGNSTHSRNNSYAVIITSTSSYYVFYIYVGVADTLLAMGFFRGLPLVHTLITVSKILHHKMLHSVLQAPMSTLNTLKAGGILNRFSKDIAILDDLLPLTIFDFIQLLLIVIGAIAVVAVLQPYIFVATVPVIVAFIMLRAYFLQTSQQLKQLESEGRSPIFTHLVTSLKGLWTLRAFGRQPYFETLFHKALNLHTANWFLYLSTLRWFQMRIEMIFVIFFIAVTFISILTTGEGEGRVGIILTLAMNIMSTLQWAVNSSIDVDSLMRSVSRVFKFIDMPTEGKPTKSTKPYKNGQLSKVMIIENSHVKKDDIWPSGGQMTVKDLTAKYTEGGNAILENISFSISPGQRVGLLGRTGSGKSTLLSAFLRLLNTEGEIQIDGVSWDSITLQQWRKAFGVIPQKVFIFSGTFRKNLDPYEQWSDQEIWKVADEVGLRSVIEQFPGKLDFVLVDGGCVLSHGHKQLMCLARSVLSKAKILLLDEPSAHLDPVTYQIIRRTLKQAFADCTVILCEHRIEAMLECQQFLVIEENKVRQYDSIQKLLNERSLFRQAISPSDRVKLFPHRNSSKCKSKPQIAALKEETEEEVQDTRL
Chain of CFTR (P13569 whole entry, species assumed): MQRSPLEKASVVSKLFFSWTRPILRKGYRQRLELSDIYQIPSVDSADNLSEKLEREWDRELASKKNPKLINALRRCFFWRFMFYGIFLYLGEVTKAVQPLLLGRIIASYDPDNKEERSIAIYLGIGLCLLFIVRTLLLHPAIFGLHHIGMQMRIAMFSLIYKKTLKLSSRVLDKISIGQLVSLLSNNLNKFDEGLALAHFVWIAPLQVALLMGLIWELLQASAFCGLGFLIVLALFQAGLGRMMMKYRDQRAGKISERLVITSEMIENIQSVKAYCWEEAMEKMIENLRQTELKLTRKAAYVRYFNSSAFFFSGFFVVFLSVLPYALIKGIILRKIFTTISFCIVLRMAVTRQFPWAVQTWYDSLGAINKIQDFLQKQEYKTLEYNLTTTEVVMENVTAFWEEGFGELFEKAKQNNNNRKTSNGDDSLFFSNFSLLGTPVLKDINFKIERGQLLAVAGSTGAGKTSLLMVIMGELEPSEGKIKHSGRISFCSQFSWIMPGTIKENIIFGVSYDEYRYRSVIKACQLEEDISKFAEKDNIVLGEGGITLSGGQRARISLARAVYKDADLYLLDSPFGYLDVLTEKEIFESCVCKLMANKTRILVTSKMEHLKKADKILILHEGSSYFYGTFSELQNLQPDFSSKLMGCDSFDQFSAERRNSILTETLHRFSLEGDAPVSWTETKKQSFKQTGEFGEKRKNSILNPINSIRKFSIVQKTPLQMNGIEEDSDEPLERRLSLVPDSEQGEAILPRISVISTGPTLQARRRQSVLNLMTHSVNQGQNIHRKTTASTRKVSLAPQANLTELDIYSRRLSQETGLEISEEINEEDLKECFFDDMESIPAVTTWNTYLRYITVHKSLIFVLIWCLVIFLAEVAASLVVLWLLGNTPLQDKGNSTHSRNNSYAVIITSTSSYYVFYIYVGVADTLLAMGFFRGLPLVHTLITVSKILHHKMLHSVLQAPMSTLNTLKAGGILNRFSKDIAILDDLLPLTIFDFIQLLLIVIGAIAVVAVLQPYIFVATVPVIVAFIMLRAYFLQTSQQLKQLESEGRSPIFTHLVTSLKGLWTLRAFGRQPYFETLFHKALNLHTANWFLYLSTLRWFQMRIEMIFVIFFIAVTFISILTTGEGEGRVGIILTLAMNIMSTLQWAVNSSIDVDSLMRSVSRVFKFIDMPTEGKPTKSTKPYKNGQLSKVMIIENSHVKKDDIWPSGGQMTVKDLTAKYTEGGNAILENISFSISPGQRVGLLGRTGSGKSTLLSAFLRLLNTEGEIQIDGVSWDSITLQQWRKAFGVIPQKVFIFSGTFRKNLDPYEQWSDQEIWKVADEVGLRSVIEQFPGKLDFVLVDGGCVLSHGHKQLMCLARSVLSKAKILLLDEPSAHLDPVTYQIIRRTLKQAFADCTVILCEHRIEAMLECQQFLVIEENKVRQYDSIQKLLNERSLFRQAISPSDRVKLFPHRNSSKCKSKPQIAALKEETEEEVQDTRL

| Compound | CFTR modulating activity (CFTR potentiator activity) (CFTR) | HBE2 Activity at 3 μM [1] |
| --- | --- | --- |
| C[C@@H]1CCCCC[C@](O)(C(F)(F)F)C2=NN=C(O2)c2nc(c(C(F)(F)F)cc2N)O1 [(6R,12R)-17-amino-12-methyl-6,15-bis(trifluoromethyl)-13,19-dioxa-3,4,18-triazatricyclo[12.3.1.12,5]nonadeca-1(18),2,4,14,16-pentaen-6-ol] | confirmed |  |
| Cc1cccc(C)c1-c1cc2nc(n1)NS(=O)(=O)c1cccc(c1)C(=O)N(C1CC3(CC(NC(=O)OC(C)C)C3)C1)[C@H](CC(C)(C)C)CC2 (stereo partly drawn) [Compound 69] |  | +++ (+++ is >60%) |
| Cc1cccc(C)c1-c1cc2nc(n1)NS(=O)(=O)c1cccc(c1)C(=O)N(Cc1cncc(N(C)C3CCC3)n1)[C@H](CC(C)(C)C)CC2 [Compound 72] |  | +++ (+++ is >60%) |
